Measurements reported in patent publication US20130096100A1, “DI(ARYLAMINO)ARYL COMPOUND” (ASTELLAS PHARMA INC., priority 2007, published 2013).

Tests used:
[1] = target: T1, EML4-ALK fusion protein v1 (Homo sapiens, UniProt Q9UM73, D1529E/I1461V/K1491R); assay: Inhibitory activity against the kinase activity of EML4-ALK fusion protein v1 (Test Example 1); assay type: biochemical; conditions: ATP 100 μM, reaction 1 hour, HTRF KinEASE-TK
T1 construct: FLAG (N); made in house
Protocol: EML4-ALK fusion protein v1 (purified from BA/F3 cells expressing EML4-ALK fusion protein v1) was investigated for its phosphorylation activity toward a peptide substrate by using a kinase activity detection kit (HTRF KinEASE-TK; Cisbio Inc.). […] The ATP concentration used was 100 μM. Another reaction solution was prepared to contain the enzyme protein but no test compound (in which the solvent DMSO alone was added at 0.4% in place of the test compound), followed by reaction in the same manner with or without ATP addition. […] The concentration causing 50% inhibition (IC50) was calculated for each test compound by the logistic regression method.
N-terminally FLAG-tagged EML4-ALK fusion protein v1 was inserted into a vector pMX-iresCD8 capable of co-expression of insert cDNA and cell surface antigen CD8 (J. Biol. Chem., 2001, vol. 276, p. 39012-39020) to create a vector FLAG-EML4-ALKv1/pMX-iresCD8 expressing both FLAG-EML4-ALKv1 and CD8. FLAG-EML4-ALKv1/pMX-iresCD8 was used to create a recombinant retrovirus in the same manner as described above and infected into mouse lymphoid cell line BA/F3 cells. Using a magnetic bead reagent for cell separation and a purification column (anti-CD8 monoclonal antibody immobilized on magnetic beads and a MiniMACS purification column; both are products of Miltenyi Biotec Inc.), cell surface CD8-expressing cells were purified conveniently. […] After washing 3 times with PBS, the cells were lysed in a lysis solution (50 mM Tris.HCl (pH 7.4), 150 mM NaCl, 1% Triton X100, 5 mM EDTA, 5 mM EGTA, 1 mM NaVO4, 1 mM DTT and protease inhibitor cocktail complete). The EML4-ALK fusion protein v1 present in the supernatant obtained after centrifugation was purified using ANTI-FLAG M2 Affinity Gel (SIGMA-ALDRICH Inc.) according to the method described in the product information document.
The EML4-ALK fusion protein v1 purified as above was investigated for its phosphorylation activity toward a peptide substrate using a kinase activity detection kit (HTRF KinEASE-TK; Cisbio Inc.). Using TK substrate 1, which was included in the kit, as the substrate, and after adding no ATP or 100 μM ATP, the mixtures were reacted at room temperature for 1 hour, and the count of HTRF was detected as recommended by the Kits manufacturer.

[2] = test system: human non-small cell lung cancer cell line NCI-H2228 cells (EML4-ALK fusion protein-expressing cells); assay: Inhibitory effect against anchorage-independent cell growth of NCI-H2228 cells (Test Example 3); assay type: cell-based; conditions: 120 h, spheroid plate, 5 days, CellTiter-Glo
Description: Measurement for anchorage-independent cell growth (colony method, etc) has been known to be a system for investigating the anticancer action (pharmacological effect) of test compounds (Clinical Oncology, second edition, Cancer and Chemotherapy Publishers Inc.). In place of the colony method, there is a following method using spheroid plates for measuring the growth of non-attached cells.
(§1) In a 96-well spheroid plate (Sumilon Celltight Spheroid 96U; Sumitomo Bakelite Co., Ltd., Japan), human non-small cell lung cancer cell line NCI-H2228 cells were seeded at 2000 cells per well in RPMI1640 medium (Invitrogen) containing 10% fetal bovine serum. NCI-H2228 cells are those expressing another EML4-ALK fusion protein, which is different from the EML4-ALK fusion protein v1 because it is encoded by an EML4-ALK fusion polynucleotide whose fusion point on EML4 cDNA is different from that of the EML4-ALK fusion polynucleotide v1, but whose ALK region is the same as that of the EML4-ALK fusion polynucleotide v1. The above NCI-H2228 cells seeded in the plate were cultured overnight under 5% CO2 at 37° C., followed by addition of a test compound (final concentration: 10 μM to 1 nM). As a negative control, DMSO used as a solvent was added at the same concentration as the test compound. Then, the cells were cultured under 5% CO2 at 37° C. for 5 days. A cell counting reagent (CellTiter-Glo™ Luminescent Cell Viability Assay; Promega) was added and agitated for 20 minutes, followed by measurement with a luminometer (ML3000 microtiter plate luminometer; Dynatech Laboratories).

[3] = test system: human non-small cell lung cancer cell line HCC827 cells (mutant EGFR protein-expressing cells); assay: Inhibitory effect against anchorage-independent cell growth of HCC827 cells (Test Example 4); assay type: cell-based; conditions: 120 h, spheroid plate, 5 days, CellTiter-Glo
Protocol: as §1
Evaluation of Inhibitory Effect Against Anchorage-Independent Cell Growth of Human Non-Small Cell Lung Cancer Cell Line HCC827 Cells (Mutant EGFR (with Partial Deletion of Exon 19 in EGFR) Protein-Expressing Cells, American Type Culture Collection)
Evaluation was performed in the same manner as shown in Test Example 3.

T1 sequence (Q9UM73 with tags, fused parts or gaps I1461V/K1491R/D1529E): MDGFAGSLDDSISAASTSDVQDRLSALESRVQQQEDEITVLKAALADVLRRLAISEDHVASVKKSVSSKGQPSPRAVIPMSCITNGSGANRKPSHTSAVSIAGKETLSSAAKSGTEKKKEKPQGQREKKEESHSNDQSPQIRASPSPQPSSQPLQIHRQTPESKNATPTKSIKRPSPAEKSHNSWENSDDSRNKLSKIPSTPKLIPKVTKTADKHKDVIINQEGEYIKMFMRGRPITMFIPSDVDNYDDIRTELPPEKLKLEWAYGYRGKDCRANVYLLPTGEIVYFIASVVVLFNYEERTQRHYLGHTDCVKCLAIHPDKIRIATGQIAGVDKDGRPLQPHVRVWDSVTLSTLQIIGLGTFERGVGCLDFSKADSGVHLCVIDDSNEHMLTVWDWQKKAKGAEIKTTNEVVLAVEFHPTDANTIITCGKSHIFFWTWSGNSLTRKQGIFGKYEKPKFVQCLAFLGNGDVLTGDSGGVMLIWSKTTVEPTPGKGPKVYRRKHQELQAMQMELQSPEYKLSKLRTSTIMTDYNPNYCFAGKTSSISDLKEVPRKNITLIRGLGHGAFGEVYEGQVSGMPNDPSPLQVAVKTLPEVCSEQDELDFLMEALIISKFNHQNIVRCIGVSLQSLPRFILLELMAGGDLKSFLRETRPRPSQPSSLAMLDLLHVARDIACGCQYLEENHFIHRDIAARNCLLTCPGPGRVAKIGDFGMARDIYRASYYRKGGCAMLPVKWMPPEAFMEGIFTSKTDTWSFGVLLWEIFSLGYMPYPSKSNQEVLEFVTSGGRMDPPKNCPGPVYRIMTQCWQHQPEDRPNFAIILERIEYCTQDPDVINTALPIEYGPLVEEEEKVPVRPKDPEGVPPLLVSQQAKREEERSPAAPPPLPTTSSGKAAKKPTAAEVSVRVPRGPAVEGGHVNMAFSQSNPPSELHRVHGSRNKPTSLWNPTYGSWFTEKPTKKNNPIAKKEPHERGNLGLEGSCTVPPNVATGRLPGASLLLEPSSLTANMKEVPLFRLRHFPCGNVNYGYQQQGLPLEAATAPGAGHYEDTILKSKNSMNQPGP

SMILES | IC50 [1] [µM] | IC50 [2] [µM] | IC50 [3] [µM] | melting point [°C]
CNS(=O)(=O)c1ccccc1Nc1ncnc(Nc2ccc(N3CCC(N4CCN(C)CC4)CC3)cc2OC)n1 [Example 7, 2-{[4-({2-methoxy-4-[4-(4-methylpiperazin-1-yl)piperidin-1-yl]phenyl}amino)-1,3,5-triazin-2-yl]amino}-N-methylbenzenesulfonamide] | 0.05 | 0.087 | 0.214 | –
COc1cc(N2CCC3(CCCCN3C)CC2)ccc1Nc1ncnc(Nc2ccccc2S(=O)(=O)C(C)C)n1 [Example 12] | 0.061 | 0.134 | 0.509 | 132 to 135
COc1cc(N2CCN(C3CCN(C)CC3)CC2)ccc1Nc1nc(Nc2ccccc2S(=O)(=O)C(C)C)c2ccccc2n1 [Example 45] | 0.066 | 1.04 | 1.9 | 109 to 114
COc1cc(N(C)C2CCN(C)CC2)ccc1Nc1ncnc(Nc2ccccc2S(=O)(=O)C(C)C)n1 [Example 52] | 0.072 | 0.159 | 0.82 | –
COc1cc(N2CCNCC2)ccc1Nc1ncnc(Nc2ccccc2S(=O)(=O)C(C)C)n1 [Example 72] | 0.051 | 0.093 | 0.67 | –
COc1cc(N2CCC3(CCCN3C)CC2)ccc1Nc1ncnc(Nc2ccccc2S(=O)(=O)C(C)C)n1 [Example 120] | 0.074 | 0.168 | 0.66 | –
COc1cc(N2CCC(N3CCN(C)CC3)CC2)ccc1Nc1ncnc(Nc2ccccc2S(=O)(=O)NC(C)C)n1 [Example 149] | 0.04 | 0.062 | 0.512 | 185 to 189
COc1cc(N2CCC(N3CCN(C)CC3)CC2)ccc1Nc1ncnc(Nc2ccccc2S(=O)(=O)N(C)C(C)C)n1 [Example 166] | 0.049 | 0.125 | 0.419 | 162 to 164
COc1cc(N2CC(N3CCN(C)CC3)C2)ccc1Nc1ncnc(Nc2ccccc2S(=O)(=O)C(C)C)n1 [Example 176] | 0.15 | 0.119 | 0.496 | –

Stronger by IC50 [1], values ahead:

IC50 [1] [µM] | IC50 [2] [µM] | IC50 [3] [µM] | melting point [°C] | SMILES
0.029 | 0.125 | 1.03 | – | COc1cc(N2CCN(C)CC2)ccc1Nc1ncnc(Nc2ccccc2S(=O)(=O)C(C)C)n1 [Example 24]
0.025 | 0.156 | 0.648 | – | COc1cc(N2CCC(N3CCCC3)CC2)ccc1Nc1ncnc(Nc2ccccc2S(=O)(=O)C(C)C)n1 [Example 58]
0.026 | 0.096 | 0.791 | – | COc1cc(N2CCC(N3CCC(O)C3)CC2)ccc1Nc1ncnc(Nc2ccccc2S(=O)(=O)C(C)C)n1 (stereo not shown) [Example 63]
0.033 | 0.061 | 0.252 | – | COc1cc(N2CCC(N3CCN(C)CC3)CC2)ccc1Nc1ncnc(Nc2ccccc2S(=O)(=O)NC2CC2)n1 [Example 171]
